How the values were obtained:
Assay in all cases: Caspase Inhibition Assay
Caspase-7 = target: T1, Caspase-7 (Homo sapiens, UniProt P55210)
T1 sequence (P55210 whole entry): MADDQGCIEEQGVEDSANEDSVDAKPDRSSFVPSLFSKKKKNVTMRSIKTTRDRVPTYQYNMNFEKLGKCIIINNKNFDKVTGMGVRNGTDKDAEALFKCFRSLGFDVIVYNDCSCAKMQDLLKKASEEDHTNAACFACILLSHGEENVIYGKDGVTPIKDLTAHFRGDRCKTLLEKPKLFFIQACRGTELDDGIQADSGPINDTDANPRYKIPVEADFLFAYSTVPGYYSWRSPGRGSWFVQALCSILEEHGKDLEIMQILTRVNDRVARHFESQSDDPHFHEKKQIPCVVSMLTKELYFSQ
Experimental: (§1) The substrate peptides terminating in AMC are processed by caspases with or without inhibitors, and the accumulation of AMC was assessed with a Cytofluor fluorescent plate reader at excitation and emission wavelengths of 380 and 460 nm. Compounds were tested, and full IC50 curves were run for all compounds expressing measurable inhibitory activity.

Caspase-1 = target: T2, Caspase-1 (Homo sapiens, UniProt P29466)
T2 sequence (P29466 whole entry): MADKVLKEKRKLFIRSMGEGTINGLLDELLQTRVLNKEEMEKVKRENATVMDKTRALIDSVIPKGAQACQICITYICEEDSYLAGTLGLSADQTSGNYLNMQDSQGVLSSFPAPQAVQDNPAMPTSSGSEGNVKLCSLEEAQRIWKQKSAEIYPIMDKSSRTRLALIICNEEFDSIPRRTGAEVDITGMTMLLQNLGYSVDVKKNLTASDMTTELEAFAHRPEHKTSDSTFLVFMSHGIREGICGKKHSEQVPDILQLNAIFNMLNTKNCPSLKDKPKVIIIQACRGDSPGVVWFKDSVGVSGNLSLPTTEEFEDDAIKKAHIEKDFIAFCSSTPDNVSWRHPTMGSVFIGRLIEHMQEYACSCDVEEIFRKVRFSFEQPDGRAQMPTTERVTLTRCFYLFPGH
Experimental: as §1

Caspase-8 = Caspase-8 (Homo sapiens, UniProt Q14790)
Caspase-8, sequence (Q14790 217-374 limits assumed): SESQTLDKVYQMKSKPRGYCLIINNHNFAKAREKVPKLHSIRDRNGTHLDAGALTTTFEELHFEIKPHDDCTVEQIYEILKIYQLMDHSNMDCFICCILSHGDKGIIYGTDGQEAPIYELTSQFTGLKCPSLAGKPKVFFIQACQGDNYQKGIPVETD
Caspase-8, sequence (Q14790 385-479 limits assumed): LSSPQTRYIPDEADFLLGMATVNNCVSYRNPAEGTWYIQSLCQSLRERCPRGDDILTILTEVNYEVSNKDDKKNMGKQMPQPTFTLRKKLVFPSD
Experimental: as §1

Caspase-3 = target: T3, Caspase-3 (Homo sapiens, UniProt P42574)
T3 sequence (P42574 whole entry): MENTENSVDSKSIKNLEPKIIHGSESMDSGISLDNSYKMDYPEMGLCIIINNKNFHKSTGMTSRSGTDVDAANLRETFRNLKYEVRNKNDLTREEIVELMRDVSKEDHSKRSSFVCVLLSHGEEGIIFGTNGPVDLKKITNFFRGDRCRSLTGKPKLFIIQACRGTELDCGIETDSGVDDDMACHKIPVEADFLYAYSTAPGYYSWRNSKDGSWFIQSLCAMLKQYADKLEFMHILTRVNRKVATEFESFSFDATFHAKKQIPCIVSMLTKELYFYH
Experimental: as §1

SMILES | IC50 (Caspase-7) [nM] | IC50 (Caspase-1) [nM] | IC50 (Caspase-8) [nM] | IC50 (Caspase-3) [nM] | IC50 (Caspase-3; pH 7, 37 °C) [nM]
COc1ccc(OC)c(C(O)C(=O)N[C@H](C(=O)N[C@@H](CC(=O)O)C(=O)CSCc2ccccc2)C(C)C)c1 (stereo partly drawn) [(3S)-5-(benzylsulfanyl)-3-[(2S)-2-[2-(2,5-dimethoxyphenyl)-2-hydroxyacetamido]-3-methylbutanamido]-4-oxopentanoic acid] | 545 | 4490 | 975 | 29 | 
COc1ccc(C(C)=O)cc1C(O)C(=O)N[C@H](C(=O)N[C@@H](CC(=O)O)C(=O)CSCc1ccccc1)C(C)C (stereo partly drawn) [(3S)-5-(benzylsulfanyl)-3-[(2S)-2-[2-(5-acetyl-2-methoxyphenyl)-2-hydroxyacetamido]-3-methylbutanamido]-4-oxopentanoic acid] | 290 | 4850 | 635 | 16 | 
COc1ccc(Br)cc1C(O)C(=O)N[C@H](C(=O)N[C@@H](CC(=O)O)C(=O)CSCc1ccccc1)C(C)C (stereo partly drawn) [(3S)-5-(benzylsulfanyl)-3-[(2S)-2-[2-(5-bromo-2-methoxyphenyl)-2-hydroxyacetamido]-3-methylbutanamido]-4-oxopentanoic acid] | 91 | 1540 | 104 | 5 | 
COc1ccc(I)cc1C(O)C(=O)N[C@H](C(=O)N[C@@H](CC(=O)O)C(=O)CSCc1ccccc1)C(C)C (stereo partly drawn) [(3S)-5-(benzylsulfanyl)-3-[(2S)-2-[2-hydroxy-2-(5-iodo-2-methoxyphenyl)acetamido]-3-methylbutanamido]-4-oxopentanoic acid] | 135 | 675 | 98 | 16 | 
COc1ccc(Br)cc1[C@@H](C(=O)N[C@H](C(=O)N[C@@H](CC(=O)O)C(=O)CSCc1ccccc1)C(C)C)C(C)C [(3S)-5-(benzylsulfanyl)-3-[(2S)-2-[(2S)-2-(5-bromo-2-methoxyphenyl)-3-methylbutanamido]-3-methylbutanamido]-4-oxopentanoic acid] | > 10000 | > 10000 | 1320 |  | 9440
COc1ccc(Br)cc1[C@H](Cc1ccccc1)C(=O)N[C@H](C(=O)N[C@@H](CC(=O)O)C(=O)CSCc1ccccc1)C(C)C [(3S)-5-(benzylsulfanyl)-3-[(2S)-2-[(2S)-2-(5-bromo-2-methoxyphenyl)-3-phenylpropanamido]-3-methylbutanamido]-4-oxopentanoic acid] | 4200 | 5810 | 5830 |  | 181
C=CC[C@H](C(=O)N[C@H](C(=O)N[C@@H](CC(=O)O)C(=O)CSCc1ccccc1)C(C)C)c1cc(Br)ccc1OC [(3S)-5-(benzylsulfanyl)-3-[(2S)-2-[(2S)-2-(5-bromo-2-methoxyphenyl)pent-4-enamido]-3-methylbutanamido]-4-oxopentanoic acid] | 2210 | 6510 | 1620 |  | 80
C#CC[C@H](C(=O)N[C@H](C(=O)N[C@@H](CC(=O)O)C(=O)CSCc1ccccc1)C(C)C)c1cc(Br)ccc1OC [(3S)-5-(benzylsulfanyl)-3-[(2S)-2-[(2S)-2-(5-bromo-2-methoxyphenyl)pent-4-ynamido]-3-methylbutanamido]-4-oxopentanoic acid] | 3620 | > 10000 | 4470 |  | 341
CCC[C@H](C(=O)N[C@H](C(=O)N[C@@H](CC(=O)O)C(=O)CSCc1ccccc1)C(C)C)c1cc(Br)ccc1OC [(3S)-5-(benzylsulfanyl)-3-[(2S)-2-[(2S)-2-(5-bromo-2-methoxyphenyl)pentanamido]-3-methylbutanamido]-4-oxopentanoic acid] | 5300 | > 10000 | 4500 |  | 274
COc1ccc(Br)cc1[C@H](C)C(=O)N[C@H](C(=O)N[C@@H](CC(=O)O)C(=O)CSCc1ccccc1)C(C)C [(3S)-5-(benzylsulfanyl)-3-[(2S)-2-[(2S)-2-(5-bromo-2-methoxyphenyl)propanamido]-3-methylbutanamido]-4-oxopentanoic acid] | 3690 | > 10000 | 5380 |  | 176
COc1ccc(-c2nc(C)no2)cc1C(O)C(=O)N[C@H](C(=O)N[C@@H](CC(=O)O)C(=O)CSCc1ccccc1)C(C)C (stereo partly drawn) [(3S)-5-(benzylsulfanyl)-3-[(2S)-2-{2-hydroxy-2-[2-methoxy-5-(3-methyl-1,2,4-oxadiazol-5-yl)phenyl]acetamido}-3-methylbutanamido]-4-oxopentanoic acid] | 63 | 2460 | 280 | 12 | 
COc1ccc(Br)cc1C1(C(=O)N[C@H](C(=O)N[C@@H](CC(=O)O)C(=O)CSCc2ccccc2)C(C)C)CC1 [(3S)-5-(benzylsulfanyl)-3-[(2S)-2-{[1-(5-bromo-2-methoxyphenyl)cyclopropyl]formamido}-3-methylbutanamido]-4-oxopentanoic acid] | > 10000 | > 10000 | > 10000 |  | 323

Reference: BindingDB's records for doi:10.1016/j.bmcl.2005.05.116 (Merck Frosst Canada, 2005)
